Structures are written as SMILES.

Series [1] can be described thus: (§1) Oral bioavailability in Sprague-Dawley rat at 10 mg/kg. The series is classed as ADME, organism-based. The conditions noted are these: Sprague-Dawley, in vivo.
Series [2] can be described thus: Tmax in C57BL/6 mouse at 10 mg/kg, po. Conditions: in vivo. It is filed as ADME, organism-based. Also on record: dose 10 mg/kg, route oral.
The nature of series [3]: AUC in C57BL/6 mouse at 10 mg/kg, po. It is filed as ADME, organism-based. Also on record: dose 10 mg/kg, route oral. Conditions: plasma.
Series [4] in a line: Cmax in C57BL/6 mouse at 10 mg/kg, po. Conditions: in vivo. On the set-up: dose 10 mg/kg, route oral. It is filed as ADME, organism-based.
The nature of series [5]: (§2) AUC in Sprague-Dawley rat at 10 mg/kg, po. It is filed as ADME, organism-based, Plasma. Also on record: dose 10 mg/kg, route oral. Conditions: Sprague-Dawley, plasma.
A short description of series [6]: Oral bioavailability in C57BL/6 mouse at 10 mg/kg. It is filed as ADME, organism-based. The conditions noted are these: in vivo.
In series [7] the test system is Rattus norvegicus. Described as §1. Conditions: in vivo. It is filed as ADME, organism-based.
For series [8], the system named is Rattus norvegicus. The description is as §2. It is filed as ADME, organism-based, Plasma. On the set-up: dose 10 mg/kg, route oral. The conditions noted are these: in vivo.

As for `CC#C[C@H]1CN(S(=O)(=O)c2ccc(N)nc2)CCN1c1ccc([S@](=N)(=O)C(F)(F)F)cc1`, the figures for the bioavailability in series [1] and in series [6] were 51% and 53%, respectively. The Tmax – broadly, the time from dosing to the highest level – in series [2] came out at 1 h. Further, the AUC (commonly the area under the concentration-time curve, a measure of exposure) in series [3] is 362 µM·h; in series [5], 25.3 µM·h. Further, the Cmax (in general, the peak of the concentration-time curve) in series [4] was 46.6 µM.

In the case of `CC#C[C@H]1CN(S(=O)(=O)c2ccc(N)nc2)CCN1c1ccc([C@@](C)(O)C(F)(F)F)cn1`, the bioavailability in series [1] and in series [6] was 47% throughout. Moreover, the Tmax in series [2] was determined as 0.25 h. Besides, the figures for the AUC in series [3] and in series [5] were 37 µM·h and 28.4 µM·h, respectively. This molecule had a Cmax in series [4] of 9.71 µM.

`CC#C[C@H]1CN(S(=O)(=O)c2ccc(N)nc2)CCN1c1ccc(S(N)(=O)=O)cc1`: in series [1], the bioavailability (as a rule, the share of a dose that reaches the circulation, judged against a reference dose that is usually intravenous) came to 5%. The AUC in series [5] was determined as 0.26 µM·h.

In the case of `CC#C[C@H]1CN(S(=O)(=O)c2ccc(N)nc2)CCN1c1ccc(C(O)(C(F)(F)F)C(F)(F)F)cc1`, in series [2], the Tmax amounted to 5 h. The values for the AUC in series [3] and in series [5] were 64.8 µM·h and 20 µM·h, respectively. For the same molecule, in series [4], the Cmax stood at 5.82 µM.

`CC#C[C@H]1CN(S(=O)(=O)c2ccc(N)nc2)CCN1c1ccc([C@](O)(CO)C(F)(F)F)cc1` came in with a bioavailability in series [1] of 48%. In series [5], this molecule returned an AUC of 7.1 µM·h.

`CC#C[C@H]1CN(S(=O)(=O)c2ccc(N)nc2)CCN1c1ccc(S(=O)(=O)NC)cc1` displayed a F with Rattus norvegicus [7] of 1.5%. Further, the AUC with Rattus norvegicus [8] worked out at 0.03 µM·h.

The record behind these values is ChEMBL document CHEMBL3232863, “Small molecule disruptors of the glucokinase-glucokinase regulatory protein interaction: 3. Structure-activity relationships within the aryl carbinol region of the N-arylsulfonamido-N'-arylpiperazine series” (J Med Chem, 2014).
